Tests used:
Test in all cases: kinase selectivity panel
Type in all cases: biochemical
[1] = target: T1, SGK (Homo sapiens, UniProt O00141); conditions: read-out: percentage of control activity (POC), SGK
T1 construct: purchased Eurofins Pharma Discovery Services (KinaseProfiler; Cerep BioPrint panel)
T1 sequence (O00141 1-431): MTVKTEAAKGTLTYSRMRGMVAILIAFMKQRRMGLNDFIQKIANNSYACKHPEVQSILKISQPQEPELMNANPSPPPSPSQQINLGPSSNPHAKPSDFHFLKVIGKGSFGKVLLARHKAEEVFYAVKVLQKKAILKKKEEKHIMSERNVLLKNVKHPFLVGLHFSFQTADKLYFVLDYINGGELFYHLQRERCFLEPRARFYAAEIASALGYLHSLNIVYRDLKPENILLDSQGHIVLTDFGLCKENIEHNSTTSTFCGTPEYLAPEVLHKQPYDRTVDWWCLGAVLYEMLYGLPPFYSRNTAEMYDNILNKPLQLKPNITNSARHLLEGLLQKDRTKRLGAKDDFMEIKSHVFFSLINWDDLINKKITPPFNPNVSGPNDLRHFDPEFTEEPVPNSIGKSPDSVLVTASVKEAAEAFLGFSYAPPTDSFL
Procedure: (§1) Kinase selectivity was evaluated at Eurofins Pharma Discovery Services using a selection of 125 representative kinases tested at a concentration of 10 μM in duplicate (S3 Table). IC50 values for selected activities were further characterized at 9 duplicate concentrations. DNA-PK activity was determined at the SelectScreen® Biochemical kinase Profiling Service of Thermo Fisher Scientific.

[2] = target: T2, Ret (Homo sapiens, UniProt P07949); conditions: read-out: percentage of control activity (POC), Ret
T2 construct: purchased Eurofins Pharma Discovery Services (KinaseProfiler; Cerep BioPrint panel)
Procedure: as §1

[3] = target: T3, Axl (Homo sapiens, UniProt P30530); conditions: read-out: percentage of control activity (POC), Axl
T3 construct: purchased Eurofins Pharma Discovery Services (KinaseProfiler; Cerep BioPrint panel)
T3 sequence (P30530 26-894): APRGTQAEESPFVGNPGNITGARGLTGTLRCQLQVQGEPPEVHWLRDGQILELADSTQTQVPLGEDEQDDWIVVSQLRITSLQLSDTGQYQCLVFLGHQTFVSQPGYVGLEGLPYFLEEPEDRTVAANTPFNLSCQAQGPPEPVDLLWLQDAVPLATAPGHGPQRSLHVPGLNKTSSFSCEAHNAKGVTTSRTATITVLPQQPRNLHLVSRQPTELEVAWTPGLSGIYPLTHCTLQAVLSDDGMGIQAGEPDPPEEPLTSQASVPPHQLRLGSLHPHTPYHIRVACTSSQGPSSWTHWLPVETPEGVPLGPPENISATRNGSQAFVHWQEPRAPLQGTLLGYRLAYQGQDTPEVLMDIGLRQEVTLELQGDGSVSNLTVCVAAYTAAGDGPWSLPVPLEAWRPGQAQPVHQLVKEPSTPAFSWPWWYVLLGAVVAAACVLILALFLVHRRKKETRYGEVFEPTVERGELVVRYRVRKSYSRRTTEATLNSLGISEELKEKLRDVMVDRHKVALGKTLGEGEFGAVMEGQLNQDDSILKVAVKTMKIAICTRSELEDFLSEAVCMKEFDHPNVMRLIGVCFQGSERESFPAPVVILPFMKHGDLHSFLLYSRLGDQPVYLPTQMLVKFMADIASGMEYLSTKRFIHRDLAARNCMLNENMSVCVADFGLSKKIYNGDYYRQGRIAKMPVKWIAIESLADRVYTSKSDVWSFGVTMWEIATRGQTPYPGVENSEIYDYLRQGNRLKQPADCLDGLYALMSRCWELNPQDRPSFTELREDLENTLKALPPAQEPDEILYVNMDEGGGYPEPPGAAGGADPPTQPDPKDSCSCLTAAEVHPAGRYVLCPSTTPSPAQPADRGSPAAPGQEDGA
Procedure: as §1

[4] = target: T4, SRPK1 (Homo sapiens, UniProt Q96SB4); conditions: read-out: percentage of control activity (POC), SRPK1
T4 construct: purchased Eurofins Pharma Discovery Services (KinaseProfiler; Cerep BioPrint panel)
Procedure: as §1

[5] = target: T5, Lck (Homo sapiens, UniProt P06239); conditions: for remaining activity at 10 µM: read-out: percentage of control activity (POC), Lck
T5 construct: Eurofins Pharma Discovery Services (contract assay service)
Procedure: as §1

[6] = target: T6, PI3K (p110b/p85a) (Homo sapiens, UniProt P42338); conditions: read-out: percentage of control activity (POC), PI3K (p110b/p85a)
T6 construct: purchased Eurofins Pharma Discovery Services (KinaseProfiler; Cerep BioPrint panel)
Procedure: as §1

[7] = target: T7, ROCK-I (Homo sapiens, UniProt Q13464); conditions: read-out: percentage of control activity (POC), ROCK-I
T7 construct: purchased Eurofins Pharma Discovery Services (KinaseProfiler; Cerep BioPrint panel)
Procedure: as §1

[8] = target: T8, Flt3 (Homo sapiens, UniProt P36888); conditions: read-out: percentage of control activity (POC), Flt3
T8 construct: purchased Eurofins Pharma Discovery Services (KinaseProfiler; Cerep BioPrint panel)
T8 sequence (P36888 27-993): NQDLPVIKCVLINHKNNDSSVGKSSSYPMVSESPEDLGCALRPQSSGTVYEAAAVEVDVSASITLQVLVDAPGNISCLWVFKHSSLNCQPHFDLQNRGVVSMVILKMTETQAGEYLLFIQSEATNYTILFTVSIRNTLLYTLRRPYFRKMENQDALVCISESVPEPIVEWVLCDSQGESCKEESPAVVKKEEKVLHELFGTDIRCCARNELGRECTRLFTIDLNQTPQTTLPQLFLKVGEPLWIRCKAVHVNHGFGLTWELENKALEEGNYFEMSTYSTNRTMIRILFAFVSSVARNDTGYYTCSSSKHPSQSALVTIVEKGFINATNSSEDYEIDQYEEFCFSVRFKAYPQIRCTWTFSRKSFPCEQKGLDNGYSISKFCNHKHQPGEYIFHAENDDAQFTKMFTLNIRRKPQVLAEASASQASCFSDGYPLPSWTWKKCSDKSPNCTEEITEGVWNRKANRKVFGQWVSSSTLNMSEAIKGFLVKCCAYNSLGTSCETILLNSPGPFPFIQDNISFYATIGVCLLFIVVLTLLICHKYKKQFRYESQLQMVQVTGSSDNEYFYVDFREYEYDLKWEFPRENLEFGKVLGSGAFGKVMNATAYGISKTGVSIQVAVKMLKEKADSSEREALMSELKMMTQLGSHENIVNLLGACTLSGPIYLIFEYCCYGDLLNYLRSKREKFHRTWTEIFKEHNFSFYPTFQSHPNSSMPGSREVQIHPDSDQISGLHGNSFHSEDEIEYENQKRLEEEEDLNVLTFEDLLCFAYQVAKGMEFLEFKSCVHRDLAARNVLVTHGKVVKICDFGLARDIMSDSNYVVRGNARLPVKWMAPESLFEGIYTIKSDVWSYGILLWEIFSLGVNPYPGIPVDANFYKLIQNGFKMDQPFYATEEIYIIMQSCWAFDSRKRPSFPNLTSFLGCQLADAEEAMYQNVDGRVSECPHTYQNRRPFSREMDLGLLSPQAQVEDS
Procedure: as §1

T2 sequence (P07949 29-1114): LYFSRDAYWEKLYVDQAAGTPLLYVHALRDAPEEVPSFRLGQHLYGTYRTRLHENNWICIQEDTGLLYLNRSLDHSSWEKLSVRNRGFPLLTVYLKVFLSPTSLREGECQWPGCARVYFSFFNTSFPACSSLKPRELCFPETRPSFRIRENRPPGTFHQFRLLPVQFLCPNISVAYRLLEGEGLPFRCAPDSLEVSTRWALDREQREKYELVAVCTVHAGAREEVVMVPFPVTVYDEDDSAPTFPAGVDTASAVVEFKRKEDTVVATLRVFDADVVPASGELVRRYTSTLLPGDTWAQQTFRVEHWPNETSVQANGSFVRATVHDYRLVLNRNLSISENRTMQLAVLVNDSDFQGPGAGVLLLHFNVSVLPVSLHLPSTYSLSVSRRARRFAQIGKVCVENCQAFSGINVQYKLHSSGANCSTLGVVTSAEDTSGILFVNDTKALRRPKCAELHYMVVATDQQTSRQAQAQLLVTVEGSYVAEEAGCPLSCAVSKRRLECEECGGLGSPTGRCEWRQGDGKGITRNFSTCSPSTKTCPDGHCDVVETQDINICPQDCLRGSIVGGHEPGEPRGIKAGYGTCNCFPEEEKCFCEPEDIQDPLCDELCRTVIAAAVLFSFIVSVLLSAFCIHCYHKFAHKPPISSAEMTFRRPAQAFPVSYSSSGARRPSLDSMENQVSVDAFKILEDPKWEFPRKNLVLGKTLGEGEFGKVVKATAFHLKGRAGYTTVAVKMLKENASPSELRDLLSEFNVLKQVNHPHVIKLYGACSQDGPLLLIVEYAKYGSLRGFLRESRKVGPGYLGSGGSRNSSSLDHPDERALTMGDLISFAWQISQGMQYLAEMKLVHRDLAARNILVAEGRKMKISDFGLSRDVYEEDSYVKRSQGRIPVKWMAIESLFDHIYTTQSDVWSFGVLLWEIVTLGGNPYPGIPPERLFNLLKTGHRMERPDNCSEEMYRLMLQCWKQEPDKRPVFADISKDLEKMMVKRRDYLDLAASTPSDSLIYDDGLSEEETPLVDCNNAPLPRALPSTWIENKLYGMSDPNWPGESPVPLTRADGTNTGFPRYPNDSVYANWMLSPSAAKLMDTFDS
T7 sequence (Q13464 whole entry): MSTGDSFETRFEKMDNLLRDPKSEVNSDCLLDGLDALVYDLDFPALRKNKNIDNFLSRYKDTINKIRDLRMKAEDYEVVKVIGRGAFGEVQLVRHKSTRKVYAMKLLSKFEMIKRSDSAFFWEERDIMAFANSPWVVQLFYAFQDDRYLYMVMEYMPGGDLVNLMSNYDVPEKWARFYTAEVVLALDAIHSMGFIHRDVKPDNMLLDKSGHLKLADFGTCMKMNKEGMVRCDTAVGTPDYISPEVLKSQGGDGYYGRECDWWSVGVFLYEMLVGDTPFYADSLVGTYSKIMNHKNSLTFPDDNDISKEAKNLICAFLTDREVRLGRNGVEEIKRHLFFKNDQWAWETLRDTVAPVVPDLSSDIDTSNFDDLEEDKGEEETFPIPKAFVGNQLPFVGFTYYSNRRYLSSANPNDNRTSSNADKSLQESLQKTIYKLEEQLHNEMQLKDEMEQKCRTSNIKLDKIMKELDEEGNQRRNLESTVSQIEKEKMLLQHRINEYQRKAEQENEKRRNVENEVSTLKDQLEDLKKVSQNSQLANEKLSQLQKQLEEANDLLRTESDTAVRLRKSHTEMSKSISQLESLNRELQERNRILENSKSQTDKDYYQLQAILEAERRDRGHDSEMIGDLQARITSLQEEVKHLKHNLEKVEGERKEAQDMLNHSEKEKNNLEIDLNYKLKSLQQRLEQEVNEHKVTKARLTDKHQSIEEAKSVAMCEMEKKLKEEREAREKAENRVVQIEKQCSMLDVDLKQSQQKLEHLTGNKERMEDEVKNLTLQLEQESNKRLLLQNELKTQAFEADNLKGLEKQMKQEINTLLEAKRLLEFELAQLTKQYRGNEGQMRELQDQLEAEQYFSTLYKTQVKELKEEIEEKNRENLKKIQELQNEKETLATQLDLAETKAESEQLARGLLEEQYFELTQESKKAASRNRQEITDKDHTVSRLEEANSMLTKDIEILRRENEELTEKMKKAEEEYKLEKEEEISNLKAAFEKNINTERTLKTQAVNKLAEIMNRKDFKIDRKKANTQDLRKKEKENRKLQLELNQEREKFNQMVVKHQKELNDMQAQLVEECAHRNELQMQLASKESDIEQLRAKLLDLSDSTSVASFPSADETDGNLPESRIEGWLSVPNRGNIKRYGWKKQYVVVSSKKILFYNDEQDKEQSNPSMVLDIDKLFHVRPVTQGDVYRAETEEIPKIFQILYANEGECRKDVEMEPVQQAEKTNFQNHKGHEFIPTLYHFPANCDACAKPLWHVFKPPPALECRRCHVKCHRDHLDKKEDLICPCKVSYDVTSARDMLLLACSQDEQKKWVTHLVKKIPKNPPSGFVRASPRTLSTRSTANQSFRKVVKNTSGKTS
T4 sequence (Q96SB4 whole entry): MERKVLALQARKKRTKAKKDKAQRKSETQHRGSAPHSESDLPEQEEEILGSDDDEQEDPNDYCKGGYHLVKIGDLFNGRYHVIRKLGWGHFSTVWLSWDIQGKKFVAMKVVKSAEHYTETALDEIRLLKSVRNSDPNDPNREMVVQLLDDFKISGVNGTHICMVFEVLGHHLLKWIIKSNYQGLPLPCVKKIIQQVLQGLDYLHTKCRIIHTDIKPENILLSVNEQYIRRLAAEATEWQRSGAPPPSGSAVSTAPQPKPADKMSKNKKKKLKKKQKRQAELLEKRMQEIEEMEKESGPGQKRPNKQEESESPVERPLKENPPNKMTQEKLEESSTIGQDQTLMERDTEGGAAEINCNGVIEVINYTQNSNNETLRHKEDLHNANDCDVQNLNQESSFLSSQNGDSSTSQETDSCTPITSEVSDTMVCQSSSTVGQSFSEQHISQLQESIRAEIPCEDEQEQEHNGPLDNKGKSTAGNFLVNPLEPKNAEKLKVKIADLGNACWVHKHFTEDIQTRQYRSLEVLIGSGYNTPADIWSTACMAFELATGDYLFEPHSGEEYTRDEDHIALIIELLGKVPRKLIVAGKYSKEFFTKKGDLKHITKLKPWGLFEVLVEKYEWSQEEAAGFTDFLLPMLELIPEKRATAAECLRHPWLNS
T5 sequence (P06239 whole entry, species assumed): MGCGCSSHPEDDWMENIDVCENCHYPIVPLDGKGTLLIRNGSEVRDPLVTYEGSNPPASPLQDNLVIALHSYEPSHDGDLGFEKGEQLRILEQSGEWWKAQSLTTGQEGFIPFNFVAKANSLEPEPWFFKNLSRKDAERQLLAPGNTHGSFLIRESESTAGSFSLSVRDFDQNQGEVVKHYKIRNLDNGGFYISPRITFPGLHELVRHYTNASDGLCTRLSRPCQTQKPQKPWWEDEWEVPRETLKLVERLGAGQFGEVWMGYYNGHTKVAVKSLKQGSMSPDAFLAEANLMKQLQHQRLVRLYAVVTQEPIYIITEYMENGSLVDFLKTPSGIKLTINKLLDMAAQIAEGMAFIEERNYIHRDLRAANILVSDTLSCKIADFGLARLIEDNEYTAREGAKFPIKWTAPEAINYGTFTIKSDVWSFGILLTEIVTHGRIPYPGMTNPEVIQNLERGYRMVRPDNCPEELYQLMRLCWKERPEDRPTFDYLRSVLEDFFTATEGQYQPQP

SMILES	remaining activity at 10 µM [1]	remaining activity at 10 µM [2]	remaining activity at 10 µM [3]	remaining activity at 10 µM [4]	remaining activity at 10 µM ([5]; 10 μM)	remaining activity at 10 µM [6]	remaining activity at 10 µM [7]	remaining activity at 10 µM [8]	inhibition at 10 µM ([5]; 10 μM)	IC50 ([5]; biochemical dose response, duplicate, read-out: Inhibition of indicated activity (IC50, μM): Lck)
CC(C)(C)N1CCC(c2cc(-c3ccc(F)cc3Cl)c3cc[n+]([O-])c(-c4c(Cl)cccc4Cl)c3n2)CC1 [compound 2]	105%	100%	98%	103%	98%	92%	97%	104%		
Cc1ccc(C(=O)NCC2CC2)cc1-c1ccc2c(c1)NC(=O)C21CCCC1 [compound 3]	99%	89%	88%	92%	102%	86%	98%	110%		
Cn1cc(-c2cccc(-c3nc(C(=O)NC4C5CC6CC4CC(O)(C6)C5)c(N)nc3N)c2)cn1 (stereo not drawn) [compound 4]	96%	63%	59%	92%	44%	71%	91%	95%	56%	3.33 µM
CS(=O)(=O)N1CCN(c2ccc(Nc3ncc(C(N)=O)c(NC4CC4)n3)cc2)CC1 [compound 5]	64%	-1%	12%	83%	4%	93%	43%	1%		
COc1c(NC(=O)c2ccc(C)c(-c3nnc4c(NCC(C)(C)C)nccn34)c2)cc(C(C)(C)C)cc1NS(C)(=O)=O [compound 7, reference compound]	114%	71%	91%	100%	81%	87%	108%	110%		

Reference: article PMC5761851, “Application of a phenotypic drug discovery strategy to identify biological and chemical starting points for inhibition of TSLP production in lung epithelial cells” (PLoS ONE, 2018)
